Source: patent US12545936B2, “Expression and secretion of UV absorbent material from transformed bacteria” (University of Cincinnati, priority 2021, dated 2026)
“Also recorded” adds a separate entry of the source.

Tested on: human skin tissues
Experiment: UV irradiation of human skin explants, cleaved caspase-3 immunohistochemical staining
Type: cell-based
Experimental: MAAs extracted from the engineered bacteria of the present invention were evaluated. Human skin was obtained from discarded tissue from elective procedures. The skin tissue was cleaned, trimmed, sterilized and plated in an organ culture medium overnight at 33° C. MAA extract or appropriate controls were applied on skin tissues, after which they were exposed to 135 mJ/cm2 UV-A and UV-B light. The application of live bacteria on human skin tissue was subsequently tested. Different treatments viz. overnight culture of wild type EcN, 10% zinc oxide solution, or overnight culture of EcN expressing shinorine were applied on human skin explants. Treatments were allowed to equilibrate with skin tissue for 1 hour, after which tissues were exposed to UV radiation. The tissues were then incubated for different durations and subsequently fixed. Cleaved caspase-3 immunohistochemical staining was performed to check for DNA damage. Slides were imaged using Leica Slide Scanner and representative images were captured. The captured images were quantified using ImageJ with a modified, previously published protocol (Crowe and Yue, 2019).

Structure (SMILES): COC1=C(NCC(=O)O)C[C@@](O)(CO)C/C1=N\[C@@H](CO)C(=O)O [shinorine]
- preventing and/or reducing UV-induced DNA damage compared to untreated group (MAA extract applied on human skin tissue, 135 mJ/cm2 UV-A and UV-B, three days post exposure, cleaved caspase-3 IHC): significantly effective
- efficacy vs. 10% zinc oxide against UV-induced DNA damage (human skin tissue, 72 h post UV irradiation, comparator 10% ZnO, FIG. 7): significant efficacy; also recorded: significantly more effective
